Patent US20240190854A1, “PYRIMIDINE OR PYRIDINE DERIVATIVES USEFUL AS HCN2 MODULATORS” (King's College London, priority 2021, published 2024)
Structures can show the parent of a compound that is named as a salt.

Tests used:
HCN2 = HCN2 (Homo sapiens (Human), UniProt Q9UL51); assay: HCN2 current assay using PatchXpress 7000A; format: cell-based; settings: PatchXpress protocol; read-out: PX HCN2 IC50
Method: (§1) Example 126A, Using PatchXpress 7000A
(§2) Solutions for recording HCN currents were:
The membrane voltage was then stepped back to −30 mV for a further 8 seconds.
(§3) The peak inward current measured at the end of the pulse to −110 mV (HCN1 and HCN2) or −130 mV (HCN4) was measured and any leak current subtracted to calculate the HCN current. The HCN current amplitude was measured after each control or compound addition and normalized to the control amplitude (Control A).
(§4) All experiments were performed at room temperature (approximately 22° C.).
(§5) Each test compound concentration was applied to the cell for seven (7) minutes, at which point the next cumulative concentration was applied.

hERG channel = hERG channel (Homo sapiens (Human), UniProt Q12809); assay: hERG assay using IonWorks Quattro; format: cell-based; settings: IonWorks protocol; read-out: IW hERG IC50
Chain of hERG channel (Q12809 whole entry): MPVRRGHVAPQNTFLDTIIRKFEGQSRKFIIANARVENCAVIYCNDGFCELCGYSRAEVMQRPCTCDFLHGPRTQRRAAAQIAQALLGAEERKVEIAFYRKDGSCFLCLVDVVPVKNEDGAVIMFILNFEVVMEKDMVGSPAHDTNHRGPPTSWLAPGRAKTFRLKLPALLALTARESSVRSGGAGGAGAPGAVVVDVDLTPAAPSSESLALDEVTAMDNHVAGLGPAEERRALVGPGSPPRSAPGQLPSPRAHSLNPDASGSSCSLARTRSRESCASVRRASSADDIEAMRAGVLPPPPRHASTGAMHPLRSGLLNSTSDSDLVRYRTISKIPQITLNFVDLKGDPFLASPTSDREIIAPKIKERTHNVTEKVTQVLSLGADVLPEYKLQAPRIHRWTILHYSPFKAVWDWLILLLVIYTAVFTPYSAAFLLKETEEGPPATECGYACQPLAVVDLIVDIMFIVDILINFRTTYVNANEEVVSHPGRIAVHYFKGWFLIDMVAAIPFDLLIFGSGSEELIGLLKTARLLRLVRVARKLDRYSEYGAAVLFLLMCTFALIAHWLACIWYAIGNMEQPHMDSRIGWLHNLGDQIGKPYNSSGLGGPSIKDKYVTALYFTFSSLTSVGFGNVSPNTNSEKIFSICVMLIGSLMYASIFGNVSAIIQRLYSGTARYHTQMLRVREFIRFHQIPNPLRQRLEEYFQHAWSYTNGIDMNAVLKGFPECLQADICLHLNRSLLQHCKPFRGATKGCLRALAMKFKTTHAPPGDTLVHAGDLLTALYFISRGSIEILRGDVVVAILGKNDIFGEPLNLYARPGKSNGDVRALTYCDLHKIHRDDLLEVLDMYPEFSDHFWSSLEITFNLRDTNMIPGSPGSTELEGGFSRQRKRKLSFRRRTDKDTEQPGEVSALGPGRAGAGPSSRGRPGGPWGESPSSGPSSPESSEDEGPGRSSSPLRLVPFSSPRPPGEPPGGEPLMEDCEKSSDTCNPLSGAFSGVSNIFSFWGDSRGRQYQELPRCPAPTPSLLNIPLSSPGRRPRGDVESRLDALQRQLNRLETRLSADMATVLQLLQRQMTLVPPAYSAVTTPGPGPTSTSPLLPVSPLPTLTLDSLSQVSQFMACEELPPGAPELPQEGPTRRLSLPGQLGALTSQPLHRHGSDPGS
Method: Example 127A, Using IonWorks Quattro
Solutions for recording hERG currents were:
This was followed by a […] step of is to −30 mV to evoke the hERG tail current. This sequence was repeated 5 times at a frequency of 0.25 Hz (see FIG. 3). Currents were measured from the tail step at the 5th pulse and referenced to the holding current. Compounds were then incubated for 6-7 minutes prior to a second measurement of the hERG signal using an identical pulse train.

hNav1.5 = hNav1.5 (Homo sapiens (Human), UniProt Q14524)
Chain of hNav1.5 (Q14524 whole entry): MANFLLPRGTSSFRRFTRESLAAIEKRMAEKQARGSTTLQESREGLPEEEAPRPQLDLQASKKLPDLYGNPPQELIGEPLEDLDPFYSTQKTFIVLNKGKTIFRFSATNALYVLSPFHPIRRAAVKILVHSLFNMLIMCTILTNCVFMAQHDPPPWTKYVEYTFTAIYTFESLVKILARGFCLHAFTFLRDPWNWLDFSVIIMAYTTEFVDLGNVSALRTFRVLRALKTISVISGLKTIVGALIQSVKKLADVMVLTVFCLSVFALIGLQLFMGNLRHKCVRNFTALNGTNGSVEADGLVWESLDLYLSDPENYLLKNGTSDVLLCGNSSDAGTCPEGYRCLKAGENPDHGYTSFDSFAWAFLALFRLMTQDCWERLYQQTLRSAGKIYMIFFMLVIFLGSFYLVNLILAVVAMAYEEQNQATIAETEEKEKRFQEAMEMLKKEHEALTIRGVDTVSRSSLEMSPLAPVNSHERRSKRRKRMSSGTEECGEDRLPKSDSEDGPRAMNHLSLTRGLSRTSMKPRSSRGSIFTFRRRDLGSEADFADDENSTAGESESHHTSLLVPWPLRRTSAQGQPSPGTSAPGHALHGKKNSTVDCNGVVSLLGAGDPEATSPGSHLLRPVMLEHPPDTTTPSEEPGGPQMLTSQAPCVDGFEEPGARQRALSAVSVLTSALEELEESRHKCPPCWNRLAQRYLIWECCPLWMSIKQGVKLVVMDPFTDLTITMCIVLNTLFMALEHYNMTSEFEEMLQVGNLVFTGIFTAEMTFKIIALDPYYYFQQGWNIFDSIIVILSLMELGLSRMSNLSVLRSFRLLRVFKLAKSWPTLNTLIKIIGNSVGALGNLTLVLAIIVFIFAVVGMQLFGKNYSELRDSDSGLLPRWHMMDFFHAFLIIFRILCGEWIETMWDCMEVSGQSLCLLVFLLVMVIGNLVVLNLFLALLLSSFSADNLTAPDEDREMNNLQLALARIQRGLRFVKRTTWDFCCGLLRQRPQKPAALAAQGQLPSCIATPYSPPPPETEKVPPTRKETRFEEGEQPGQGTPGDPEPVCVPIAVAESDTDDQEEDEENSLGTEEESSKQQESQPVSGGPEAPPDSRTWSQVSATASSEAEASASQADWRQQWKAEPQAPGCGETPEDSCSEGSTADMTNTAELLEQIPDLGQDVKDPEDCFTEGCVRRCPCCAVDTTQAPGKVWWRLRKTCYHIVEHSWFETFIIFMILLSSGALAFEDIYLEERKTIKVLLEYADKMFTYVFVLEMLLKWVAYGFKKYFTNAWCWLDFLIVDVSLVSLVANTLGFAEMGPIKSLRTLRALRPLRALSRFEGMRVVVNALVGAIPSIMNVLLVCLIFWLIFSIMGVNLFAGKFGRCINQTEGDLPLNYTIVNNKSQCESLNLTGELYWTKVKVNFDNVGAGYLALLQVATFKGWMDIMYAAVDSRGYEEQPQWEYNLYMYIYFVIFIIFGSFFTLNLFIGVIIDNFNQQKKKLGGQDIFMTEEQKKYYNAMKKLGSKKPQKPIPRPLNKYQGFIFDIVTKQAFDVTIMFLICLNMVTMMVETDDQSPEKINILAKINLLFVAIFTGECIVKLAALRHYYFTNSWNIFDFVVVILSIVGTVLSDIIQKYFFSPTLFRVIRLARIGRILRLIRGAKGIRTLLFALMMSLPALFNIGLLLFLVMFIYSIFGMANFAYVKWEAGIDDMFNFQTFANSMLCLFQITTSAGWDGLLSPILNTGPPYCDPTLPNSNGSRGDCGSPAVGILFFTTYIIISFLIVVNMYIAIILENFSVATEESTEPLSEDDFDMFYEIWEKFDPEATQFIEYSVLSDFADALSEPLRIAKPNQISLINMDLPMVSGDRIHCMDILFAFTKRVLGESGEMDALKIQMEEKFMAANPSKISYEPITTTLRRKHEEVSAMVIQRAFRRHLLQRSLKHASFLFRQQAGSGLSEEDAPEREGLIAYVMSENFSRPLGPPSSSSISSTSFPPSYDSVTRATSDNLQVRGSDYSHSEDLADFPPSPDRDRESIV

HCN4 = HCN4 (Homo sapiens (Human), UniProt Q9Y3Q4); assay: HCN4 current assay using PatchXpress 7000A; format: cell-based; settings: PatchXpress protocol; read-out: PX HCN4 IC50
Chain of HCN4 (Q9Y3Q4 whole entry, species assumed): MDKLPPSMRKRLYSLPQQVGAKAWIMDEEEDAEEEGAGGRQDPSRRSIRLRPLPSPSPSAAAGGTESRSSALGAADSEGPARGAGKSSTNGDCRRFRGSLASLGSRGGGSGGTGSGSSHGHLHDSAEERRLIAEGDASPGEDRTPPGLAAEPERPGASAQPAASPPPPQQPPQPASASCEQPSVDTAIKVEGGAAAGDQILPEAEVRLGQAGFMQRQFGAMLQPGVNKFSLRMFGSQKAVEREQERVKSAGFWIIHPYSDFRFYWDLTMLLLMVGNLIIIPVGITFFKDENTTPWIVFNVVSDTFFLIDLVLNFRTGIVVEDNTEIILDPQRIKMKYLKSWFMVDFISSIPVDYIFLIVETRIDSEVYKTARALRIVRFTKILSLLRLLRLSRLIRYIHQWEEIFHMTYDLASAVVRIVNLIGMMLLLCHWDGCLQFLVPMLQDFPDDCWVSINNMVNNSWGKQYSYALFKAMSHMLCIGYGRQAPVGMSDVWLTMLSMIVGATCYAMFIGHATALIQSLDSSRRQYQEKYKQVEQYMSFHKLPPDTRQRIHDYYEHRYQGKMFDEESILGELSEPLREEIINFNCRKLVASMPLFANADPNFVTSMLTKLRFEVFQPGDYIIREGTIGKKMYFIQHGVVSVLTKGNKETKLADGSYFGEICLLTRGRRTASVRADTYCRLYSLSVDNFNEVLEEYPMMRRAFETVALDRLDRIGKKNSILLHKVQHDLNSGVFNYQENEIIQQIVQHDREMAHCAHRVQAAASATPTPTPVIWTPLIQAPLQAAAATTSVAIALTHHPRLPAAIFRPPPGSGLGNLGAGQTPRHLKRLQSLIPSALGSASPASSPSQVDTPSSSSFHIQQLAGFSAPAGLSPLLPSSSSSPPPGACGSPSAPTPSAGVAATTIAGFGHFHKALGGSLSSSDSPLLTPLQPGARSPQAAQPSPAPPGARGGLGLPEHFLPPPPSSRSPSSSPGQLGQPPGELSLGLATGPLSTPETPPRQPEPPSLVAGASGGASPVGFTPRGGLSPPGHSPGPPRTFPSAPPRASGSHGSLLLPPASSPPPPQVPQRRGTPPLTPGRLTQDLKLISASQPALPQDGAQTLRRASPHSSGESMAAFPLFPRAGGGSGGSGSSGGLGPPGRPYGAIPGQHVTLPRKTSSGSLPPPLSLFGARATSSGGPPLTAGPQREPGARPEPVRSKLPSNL
Method: as §1, §2, §3, §4, §5

Compound | IC50 (HCN2) [µM] | IC50 (HCN4) [µM] | IC50 (hERG channel) [µM] | IC50 (hNav1.5) [µM]
N#Cc1ccc(C[C@H](N)c2ccccc2-c2noc3ccccc23)nc1 [Example 93, (S)-1-[2-(Benzo[d]isoxazol-3-yl)phenyl]-2-(5-cyanopyridine-2-yl)ethan-1-amine hydrochloride] | 1.8 | > 30 | 7.5 | 2.2
N#Cc1cccnc1C[C@H](N)c1ccccc1-c1noc2ccccc12 [Example 75, (S)-1-[2-(Benzo[d]isoxazol-3-yl)phenyl]-2-(3-cyanopyridin-2-yl)ethan-1-amine] | 1.2 | 6.6 | 1.5 | 6.6
N#Cc1cccc(C[C@H](N)c2c(F)cccc2-c2noc3ccccc23)n1 [Example 110, (S)-6-{2-Amino-2-[2-(benzo[d]isoxazol-3-yl)-6-fluorophenyl]ethyl}-2-cyanopyridine hydrochloride] | 2.6 | 15.1 |  | > 33
CC(C)(c1ccccn1)[C@H](N)c1ccccc1-c1noc2ccccc12 [Example 49, (R)-1-[2-(Benzo[d]isoxazol-3-yl)phenyl]-2-methyl-2-(pyridine-2-yl)propane-1-amine hydrochloride] | 6.5 | 22.6 | 5.2 | 3.8
N[C@@H](Cc1ccccn1)c1ccccc1-c1noc2cc(CCO)ccc12 [Example 40, (S)-1-[2-(6-[2-Hydroxyethyl]benzo[d]isoxazol-3-yl)phenyl]-2-(pyridine-2-yl)ethan-1-amine] | 15.6 |  | 7.8 | > 33
CC(C)C(c1ccccn1)[C@H](N)c1ccccc1-c1noc2ccccc12 (stereo partly drawn) [Example 48, (S)-1-[2-(Benzo[d]isoxazol-3-yl)phenyl]-3-methyl-2-(pyridine-2-yl)butan-1-amine hydrochloride] | 5.4 | > 30 | 16 | 5.3
CNC(=O)c1cccc(C[C@H](N)c2ccccc2-c2noc3ccccc23)n1 [Example 105, (S)-6-{2-Amino-2-[2-(benzo[d]isoxazol-3-yl)phenyl]ethyl}-N-methylpyridine-2-carboxamide hydrochloride] | 4.2 | 6.2 |  | 
CC(C)n1nc(-c2ccccc2[C@@H](N)Cc2ccccn2)c2ccccc21 [Example 65, (S)-1-[2-(1-isopropyl-1H-indazole-3-yl)phenyl]-2-(pyridine-2-yl)ethan-1-amine hydrochloride] | 1.1 | 5.1 |  | 
C#Cc1ccc2c(-c3ccccc3[C@@H](N)Cc3ccccn3)noc2c1 [Example 31, (S)-1-[2-(6-Ethynylbenzo[d]isoxazol-3-yl)phenyl]-2-(pyridine-2-yl)ethan-1-amine hydrochloride] | 1.6 | 6.7 |  | 
N#Cc1ccc(C[C@H](N)c2ccccc2-c2noc3cc(Br)ccc23)nc1 [Example 81, (S)-1-[2-(6-Bromobenzo[d]isoxazol-3-yl)phenyl]-2-(5-cyanopyridine-2-yl)ethan-1-amine] | 10.8 | > 30 |  | 
N[C@@H](Cc1nc(-c2cn[nH]c2)ccc1F)c1ccccc1-c1noc2ccccc12 [Example 78, (S)-1-[2-(Benzo[d]isoxazol-3-yl)phenyl]-2-[3-fluoro-6-(1H-pyrazol-4-yl)pyridin-2-yl)ethan-1-amine hydrochloride] |  | 8.3 | 7.6 | 6.4
CC(c1ccccn1)C(N)c1ccccc1-c1noc2ccccc12 (single isomer, unassigned; diastereomer 2) [Example 2, 1-[2-(Benzo[d]isoxazol-3-yl)phenyl]-2-(pyridin-2-yl)propan-1-amine hydrochloride (diastereomer 2)] | 0.96 | > 30 |  | 

Further lines, with some results ahead:

IC50 (HCN2) [µM] | IC50 (HCN4) [µM] | Compound | IC50 (hERG channel) [µM] | IC50 (hNav1.5) [µM]
1.7 | > 30 | Cc1ccc2c(-c3ccccc3[C@@H](N)Cc3ccccn3)noc2c1 [Example 33, (S)-1-[2-(6-Methylbenzo[d]isoxazol-3-yl)phenyl]-2-(pyridine-2-yl)ethan-1-amine] | 4.4 | 8.8
1.3 | 19.5 | CC(C)n1nc(-c2ccccc2[C@@H](N)Cc2cccc(C#N)n2)c2ccccc21 [Example 67, (S)-2-(6-Cyanopyridine-2-yl)-1-[2-(1-isopropyl-1H-indazole-3-yl)phenyl]ethan-1-amine] | 3.7 | 9.5
1.3 | > 30 | Nc1cccc(C[C@H](N)c2ccccc2-c2noc3ccccc23)n1 [Example 121, (S)-6-{2-Amino-2-[2-(benzo[d]isoxazol-3-yl)phenyl]ethyl}pyridine-2-amine hydrochloride] | 8.6 | 1.6
9.5 | 28.1 | CNC(=O)Nc1cccc(C[C@H](N)c2ccccc2-c2noc3ccccc23)n1 [Example 122, (S)-1-(6-{2-Amino-2-[2-(benzo[d]isoxazol-3-yl)phenyl]ethyl}pyridine-2-yl)-3-methylurea hydrochloride] |  | 
0.9 | 6.8 | Cc1cccc(C[C@H](N)c2ccccc2-c2nn(C(C)C)c3ccccc23)n1 [Example 66, (S)-1-[2-(1-Isopropyl-1H-indazole-3-yl)phenyl]-2-(6-methylpyridine-2-yl)ethan-1-amine hydrochloride] |  | 
2.7 | > 30 | N[C@@H](Cc1ccc(Br)cn1)c1ccccc1-c1noc2ccccc12 [Example 88, (S)-1-[2-(Benzo[d]isoxazol-3-yl)phenyl]-2-(5-bromopyridine-2-yl)ethan-1-amine hydrochloride] |  | 
14.1 | > 30 | N[C@@H](Cc1cccc(C(O)CO)n1)c1ccccc1-c1noc2ccccc12 (stereo partly drawn) [Example 41, 1-(6-{(S)-2-Amino-2-[2-(benzo[d]isoxazol-3-yl)phenyl]ethyl}pyridine-2-yl)ethan-1,2-diol hydrochloride] |  | 
5.6 | 4.9 | N[C@@H](Cc1cccc(N2CC[C@@H](O)C2)n1)c1ccccc1-c1noc2ccccc12 [Example 50, (R)-1-(6-{(S)-2-Amino-2-[2-(benzo[d]isoxazol-3-yl)phenyl]ethyl}pyridine-2-yl)pyrrolidin-3-ol hydrochloride] |  | 
1.7 | 3.4 | COCCN(C)c1cccc(C[C@H](N)c2ccccc2-c2noc3ccccc23)n1 [Example 51, (S)-6-{2-Amino-2-[2-(benzo[d]isoxazol-3-yl)phenyl]ethyl}-N-(2-methoxyethyl)-N-methyl pyridin-2-amine hydrochloride] |  | 
0.6 | 2.4 | Cc1ccc(Br)nc1C[C@H](N)c1ccccc1-c1noc2ccccc12 [Example 57, (S)-1-[2-(Benzo[d]isoxazol-3-yl)phenyl]-2-(6-bromo-3-methylpyridin-2-yl)ethan-1-amine hydrochloride] |  | 
3 | 22.4 | CS(=O)(=O)c1cccc(C[C@H](N)c2ccccc2-c2noc3ccccc23)n1 [Example 103, (S)-1-[2-(Benzo[d]isoxazol-3-yl)phenyl]-2-[6-(methylsulfonyl)pyridin-2-yl]ethan-1-amine] |  | 
2.9 | > 30 | Cc1cccc(C[C@H](N)c2ccccc2-c2noc3cc(C#N)ccc23)n1 [Example 96, (S)-1-[2-(6-Cyanobenzo[d]isoxazol-3-yl)phenyl]-2-(6-methylpyridine-2-yl)ethan-1-amine] |  | 
